# Publication PMC11823630, “In vitro potentiation of tetracyclines in Pseudomonas aeruginosa by RW01, a new cyclic peptide” (Antimicrobial Agents and Chemotherapy, 2024)
# Tests used:
# [1] = tested on: PAO1 mutant MIN4_RW01_3, pmrB(M292T); experiment: MIC, E-test on MHA; format: cell-based; settings: Pseudomonas aeruginosa, PAO1, read-out: MIC, E-test
# [2] = tested on: PAO1 mutant MIN4_RW01_4, pmrB(Y98N); experiment: MIC, E-test on MHA; format: cell-based; settings: Pseudomonas aeruginosa, PAO1, read-out: MIC, E-test
# [3] = tested on: PAO1 mutant MIN16_3, nfxB(nt79∆14), pilB(N349K); experiment: MIC, E-test on MHA; format: cell-based; settings: Pseudomonas aeruginosa, PAO1, read-out: MIC, E-test
# [4] = tested on: PAO1 mutant MIN1_RW01_1, pmrB(Y98N); experiment: MIC, E-test on MHA; format: cell-based; settings: Pseudomonas aeruginosa, PAO1, read-out: MIC, E-test
# [5] = tested on: PAO1 mutant MIN16_1, nalD(T43P); experiment: MIC, E-test on MHA; format: cell-based; settings: Pseudomonas aeruginosa, PAO1, read-out: MIC, E-test
# [6] = tested on: PAO1 mutant MIN8_1, nalD(R3C), pilM(Q62X); experiment: MIC, E-test on MHA; format: cell-based; settings: Pseudomonas aeruginosa, PAO1, read-out: MIC, E-test
# [7] = tested on: PAO1 mutant MIN1_RW01_3, pmrB(V215L); experiment: MIC, E-test on MHA; format: cell-based; settings: Pseudomonas aeruginosa, PAO1, read-out: MIC, E-test
# [8] = tested on: PAO1 mutant MIN8_2, pilZ(nt18InsT); experiment: MIC, E-test on MHA; format: cell-based; settings: Pseudomonas aeruginosa, PAO1, read-out: MIC, E-test
# P. aeruginosa PAO1, WT = experiment: MIC, E-test on MHA; format: cell-based; settings: Pseudomonas aeruginosa, PAO1, read-out: MIC, E-test
# [9] = tested on: PAO1 mutant MIN2_RW01_1, pmrB(V215L); experiment: MIC, E-test on MHA; format: cell-based; settings: Pseudomonas aeruginosa, PAO1, read-out: MIC, E-test
# [10] = tested on: PAO1 mutant MIN4_RW01_2, pmrB(F124S); experiment: MIC, E-test on MHA; format: cell-based; settings: Pseudomonas aeruginosa, PAO1, read-out: MIC, E-test
# P. aeruginosa PAOΔmexZ = experiment: MIC, CLSI broth microdilution in BD Phoenix AST Broth; format: cell-based, Pseudomonas aeruginosa; settings: strain PAOΔmexZ
# P. aeruginosa 125B = experiment: as above; format: cell-based, Pseudomonas aeruginosa; settings: strain 125B
# P. aeruginosa 125A = experiment: as above; format: cell-based, Pseudomonas aeruginosa; settings: strain 125A
# P. aeruginosa 41A = experiment: as above; format: cell-based, Pseudomonas aeruginosa; settings: strain 41A
# P. aeruginosa PAOΔmexR = experiment: as above; format: cell-based, Pseudomonas aeruginosa
# P. aeruginosa PAOUW = experiment: as above; format: cell-based, Pseudomonas aeruginosa; settings: strain PAOUW
# P. aeruginosa PAO1 = experiment: as above; format: cell-based, Pseudomonas aeruginosa
# P. aeruginosa PAOUW∆oprF = experiment: as above; format: cell-based, Pseudomonas aeruginosa
# P. aeruginosa PAOΔoprM = experiment: as above; format: cell-based, Pseudomonas aeruginosa
# P. aeruginosa 41B = experiment: as above; format: cell-based, Pseudomonas aeruginosa; settings: strain 41B
# [11] = tested on: PAO1 mutant MIN2_RW01_3, parS(V152A); experiment: MIC, E-test on MHA; format: cell-based; settings: Pseudomonas aeruginosa, PAO1, read-out: MIC, E-test
# [12] = tested on: PAO1 mutant MIN16_4, nalC(T50P), pilM(Q62X); experiment: MIC, E-test on MHA; format: cell-based; settings: Pseudomonas aeruginosa, PAO1, read-out: MIC, E-test
# [13] = tested on: PAO1 mutant MIN2_RW01_2, pmrB(M292T); experiment: MIC, E-test on MHA; format: cell-based; settings: Pseudomonas aeruginosa, PAO1, read-out: MIC, E-test
# [14] = tested on: PAO1 mutant MIN16_2, nalC(aa9∆4), pilQ(nt46∆1); experiment: MIC, E-test on MHA; format: cell-based; settings: Pseudomonas aeruginosa, PAO1, read-out: MIC, E-test
# [15] = Pseudomonas aeruginosa, agent alone, 37°C, 18–22 h, three biological replicates
# [16] = MIC of the antibiotic with fixed 100 mg/L RW01
# [17] = antibiotic MIC alone vs with RW01 100 mg/L
# [18] = antibiotic with RW01 at 100 mg/L
# [19] = strain PAOΔmexR, antibiotic with RW01 at 100 mg/L
# [20] = strain PAO1, antibiotic with RW01 at 100 mg/L
# [21] = strain PAOUWΔoprF (printed PAOΔoprF), antibiotic with RW01 at 100 mg/L
# [22] = strain PAOΔoprM, antibiotic with RW01 at 100 mg/L
smiles,measurement,setting,value
"C[C@H]1c2cccc(O)c2C(=O)C2=C(O)[C@]3(O)C(=O)C(C(N)=O)=C(O)[C@@H](N(C)C)[C@@H]3[C@@H](O)[C@@H]21 [Doxycycline, doxycycline]",MIC,[1],128 mg/L
same,MIC,[2],64 mg/L
same,MIC,[3],192 mg/L
same,MIC,[4],96 mg/L
same,MIC,[5],256 mg/L
same,MIC,[6],256 mg/L
same,MIC,[7],64 mg/L
same,MIC,[8],256 mg/L
same,MIC,"P. aeruginosa PAO1, WT",32 mg/L
same,MIC,[9],96 mg/L
same,MIC,[10],64 mg/L
same,MIC,P. aeruginosa PAOΔmexZ; [15],64 mg/L
same,Antibiotic MIC + RW01 100 mg/L,P. aeruginosa PAOΔmexZ; [16],4 mg/L
same,Potentiation (fold),P. aeruginosa PAOΔmexZ; [17],16 fold
same,FICI,P. aeruginosa PAOΔmexZ; [18],0.160
same,FICI-determined effect,P. aeruginosa PAOΔmexZ; [18],Synergy (synergistic effect if FICI is ≤0.5)
same,MIC,P. aeruginosa 125B; [15],4 mg/L
same,Antibiotic MIC + RW01 100 mg/L,P. aeruginosa 125B; [16],0.5 mg/L
same,Potentiation (fold),P. aeruginosa 125B; [17],8 fold
same,FICI,P. aeruginosa 125B; [18],0.320
same,FICI-determined effect,P. aeruginosa 125B; [18],Synergy (synergistic effect if FICI is ≤0.5)
same,MIC,P. aeruginosa 125A; [15],4 mg/L
same,Potentiation (fold),P. aeruginosa 125A; [17],8 fold
same,FICI,P. aeruginosa 125A; [18],0.320
same,FICI-determined effect,P. aeruginosa 125A; [18],Synergy (synergistic effect if FICI is ≤0.5)
same,MIC,P. aeruginosa 41A; [15],16 mg/L
same,Antibiotic MIC + RW01 100 mg/L,P. aeruginosa 41A; [16],2 mg/L
same,Potentiation (fold),P. aeruginosa 41A; [17],8 fold
same,FICI,P. aeruginosa 41A; [18],0.223
same,FICI-determined effect,P. aeruginosa 41A; [18],Synergy (synergistic effect if FICI is ≤0.5)
same,MIC,P. aeruginosa PAOΔmexR; Pseudomonas aeruginosa,64 mg/L
same,Antibiotic MIC + RW01 100 mg/L,"P. aeruginosa PAOΔmexR; strain PAOΔmexR, MIC of the antibiotic with fixed 100 mg/L RW01",32 mg/L
same,Potentiation (fold),"P. aeruginosa PAOΔmexR; strain PAOΔmexR, antibiotic MIC alone vs with RW01 100 mg/L",2 fold
same,FICI,P. aeruginosa PAOΔmexR; [19],0.598
same,FICI-determined effect,P. aeruginosa PAOΔmexR; [19],Additivity (additive effect if 0.5 < FICI ≤ 1.0)
same,MIC,"P. aeruginosa PAOUW; Pseudomonas aeruginosa, agent alone, 37°C, 18–22 h, three biological replicates, read-out: MIC",32 mg/L
same,Antibiotic MIC + RW01 100 mg/L,P. aeruginosa PAOUW; [16],4 mg/L
same,Potentiation (fold),P. aeruginosa PAOUW; [17],8 fold
same,FICI,P. aeruginosa PAOUW; [18],0.223
same,FICI-determined effect,P. aeruginosa PAOUW; [18],Synergy (synergistic effect if FICI is ≤0.5)
same,MIC,"P. aeruginosa PAO1; Pseudomonas aeruginosa, PAO1, strain PAO1, agent alone, 37°C, 18–22 h, three biological replicates, read-out: MIC",16 mg/L
same,Antibiotic MIC + RW01 100 mg/L,"P. aeruginosa PAO1; strain PAO1, MIC of the antibiotic with fixed 100 mg/L RW01",1 mg/L
same,Potentiation (fold),"P. aeruginosa PAO1; strain PAO1, antibiotic MIC alone vs with RW01 100 mg/L",16 fold
same,FICI,P. aeruginosa PAO1; [20],0.258
same,FICI-determined effect,P. aeruginosa PAO1; [20],Synergy (synergistic effect if FICI is ≤0.5)
same,MIC,"P. aeruginosa PAOUW∆oprF; Pseudomonas aeruginosa, strain PAOUWΔoprF, agent alone, 37°C, 18–22 h, three biological replicates",16 mg/L
same,Potentiation (fold),"P. aeruginosa PAOUW∆oprF; strain PAOUWΔoprF (printed PAOΔoprF), antibiotic MIC alone vs with RW01 100 mg/L",16 fold
same,FICI,P. aeruginosa PAOUW∆oprF; [21],0.160
same,FICI-determined effect,P. aeruginosa PAOUW∆oprF; [21],Synergy (synergistic effect if FICI is ≤0.5)
same,Antibiotic MIC + RW01 100 mg/L,"P. aeruginosa PAOUW∆oprF; strain PAOUWΔoprF, MIC of the antibiotic with fixed 100 mg/L RW01",1 mg/L
same,MIC,P. aeruginosa PAOΔoprM; Pseudomonas aeruginosa,0.5 mg/L
same,Antibiotic MIC + RW01 100 mg/L,"P. aeruginosa PAOΔoprM; strain PAOΔoprM, MIC of the antibiotic with fixed 100 mg/L RW01",0.125 mg/L
same,Potentiation (fold),"P. aeruginosa PAOΔoprM; strain PAOΔoprM, antibiotic MIC alone vs with RW01 100 mg/L",4 fold
same,FICI,P. aeruginosa PAOΔoprM; [22],0.348
same,FICI-determined effect,P. aeruginosa PAOΔoprM; [22],Synergy (synergistic effect if FICI is ≤0.5)
same,MIC,P. aeruginosa 41B; [15],16 mg/L
same,Antibiotic MIC + RW01 100 mg/L,P. aeruginosa 41B; [16],2 mg/L
same,Potentiation (fold),P. aeruginosa 41B; [17],8 fold
same,FICI,P. aeruginosa 41B; [18],0.223
same,FICI-determined effect,P. aeruginosa 41B; [18],Synergy (synergistic effect if FICI is ≤0.5)
same,MIC,[11],256 mg/L
same,MIC,[12],128 mg/L
same,MIC,[13],128 mg/L
same,MIC,[14],128 mg/L
